In ChEMBL document CHEMBL1909046, “DrugMatrix in vitro pharmacology data”:

Tests used:
[1] = target: T1, Endothelin-1 receptor (Homo sapiens, UniProt P25101); format: cell membranes, Membrane; conditions: cho-k1; further: in other assays of this panel Not Active means under 50% inhibition at 10 µM
T1 sequence (P25101 whole entry): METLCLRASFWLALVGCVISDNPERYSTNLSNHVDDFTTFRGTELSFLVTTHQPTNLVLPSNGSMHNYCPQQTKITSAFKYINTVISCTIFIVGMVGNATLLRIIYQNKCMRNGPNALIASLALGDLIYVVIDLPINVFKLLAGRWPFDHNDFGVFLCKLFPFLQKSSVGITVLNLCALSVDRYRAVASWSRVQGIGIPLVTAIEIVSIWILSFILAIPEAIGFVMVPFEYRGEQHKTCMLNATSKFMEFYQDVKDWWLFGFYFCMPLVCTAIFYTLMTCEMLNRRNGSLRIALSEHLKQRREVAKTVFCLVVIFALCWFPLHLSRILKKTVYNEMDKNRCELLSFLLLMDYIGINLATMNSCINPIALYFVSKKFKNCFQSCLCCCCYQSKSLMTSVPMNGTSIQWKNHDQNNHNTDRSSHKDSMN

[2] = target: T2, 3-hydroxy-3-methylglutaryl-coenzyme A reductase (Homo sapiens, UniProt P04035); set-up: species or system Escherichia coli;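 further: enzyme inhibition assay of HMG-CoA reductase using radiolabeled [14C]HMG-CoA as substrate; in other assays of this panel Not Active means under 50% inhibition at 10 µM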
T2 sequence (P04035 whole entry): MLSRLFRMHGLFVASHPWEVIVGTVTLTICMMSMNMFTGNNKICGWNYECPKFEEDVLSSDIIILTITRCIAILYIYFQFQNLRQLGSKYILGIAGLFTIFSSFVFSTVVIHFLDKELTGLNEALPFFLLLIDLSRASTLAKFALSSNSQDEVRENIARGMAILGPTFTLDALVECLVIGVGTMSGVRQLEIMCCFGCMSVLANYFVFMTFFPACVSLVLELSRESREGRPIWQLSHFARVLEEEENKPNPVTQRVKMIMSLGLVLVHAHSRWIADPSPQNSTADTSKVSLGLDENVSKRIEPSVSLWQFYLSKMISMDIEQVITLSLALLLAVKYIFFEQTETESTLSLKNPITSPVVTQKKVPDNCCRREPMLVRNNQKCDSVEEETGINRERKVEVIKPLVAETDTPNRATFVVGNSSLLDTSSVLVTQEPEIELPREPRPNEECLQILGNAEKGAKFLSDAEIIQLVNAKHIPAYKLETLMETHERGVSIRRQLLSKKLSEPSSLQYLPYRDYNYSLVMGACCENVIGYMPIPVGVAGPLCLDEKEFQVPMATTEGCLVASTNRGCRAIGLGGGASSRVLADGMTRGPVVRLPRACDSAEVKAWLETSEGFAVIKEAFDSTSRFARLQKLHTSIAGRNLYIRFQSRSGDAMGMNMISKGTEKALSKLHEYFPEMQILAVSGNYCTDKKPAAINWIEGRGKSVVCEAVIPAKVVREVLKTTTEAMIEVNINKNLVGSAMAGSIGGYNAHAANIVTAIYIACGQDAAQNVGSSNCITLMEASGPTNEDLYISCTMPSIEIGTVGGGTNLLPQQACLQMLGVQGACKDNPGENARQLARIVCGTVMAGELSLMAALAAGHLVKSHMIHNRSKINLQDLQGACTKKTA

[3] = DRUGMATRIX: Imidazoline I2, Central radioligand binding (ligand: [3H] Idazoxan); format: cell membranes, Rattus norvegicus, Wistar, Cerebral cortex, Membrane; conditions: Not Active = under 50% inhibition at 10 µM
[4] = target: T3, Muscarinic acetylcholine receptor M5 (Homo sapiens, UniProt P08912); format: cell membranes, CHO-K1, Membrane; further: in other assays of this panel Not Active means under 50% inhibition at 10 µM
T3 sequence (P08912 whole entry): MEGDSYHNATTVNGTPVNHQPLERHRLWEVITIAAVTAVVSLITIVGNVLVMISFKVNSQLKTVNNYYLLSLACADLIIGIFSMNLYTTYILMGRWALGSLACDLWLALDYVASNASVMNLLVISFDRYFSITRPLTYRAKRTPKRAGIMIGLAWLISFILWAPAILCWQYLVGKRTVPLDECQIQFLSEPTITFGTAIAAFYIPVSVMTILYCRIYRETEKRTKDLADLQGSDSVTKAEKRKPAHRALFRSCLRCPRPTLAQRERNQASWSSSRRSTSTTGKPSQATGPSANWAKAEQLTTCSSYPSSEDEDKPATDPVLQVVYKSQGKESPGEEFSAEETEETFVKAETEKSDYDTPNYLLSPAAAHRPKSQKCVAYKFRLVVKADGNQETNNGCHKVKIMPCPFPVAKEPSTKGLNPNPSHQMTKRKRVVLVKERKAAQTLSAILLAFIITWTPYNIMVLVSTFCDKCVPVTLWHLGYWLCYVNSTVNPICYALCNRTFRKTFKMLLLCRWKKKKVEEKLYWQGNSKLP

[5] = target: Delta-type opioid receptor (Homo sapiens, UniProt P41143); format: cell membranes, Membrane; conditions: hek293; further: in other assays of this panel Not Active means under 50% inhibition at 10 µM
Chain of Delta-type opioid receptor (P41143 whole entry): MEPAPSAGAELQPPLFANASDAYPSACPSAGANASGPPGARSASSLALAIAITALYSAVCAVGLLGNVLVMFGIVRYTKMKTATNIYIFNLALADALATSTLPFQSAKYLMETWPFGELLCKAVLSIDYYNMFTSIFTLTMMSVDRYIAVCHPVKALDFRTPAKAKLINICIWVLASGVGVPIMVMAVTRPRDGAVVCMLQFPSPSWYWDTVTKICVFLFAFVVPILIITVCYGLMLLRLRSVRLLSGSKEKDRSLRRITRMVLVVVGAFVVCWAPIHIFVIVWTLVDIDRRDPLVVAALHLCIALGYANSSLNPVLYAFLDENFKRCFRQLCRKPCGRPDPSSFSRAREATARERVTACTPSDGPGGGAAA

[6] = target: Acetylcholinesterase (Homo sapiens, UniProt P22303); assay: DRUGMATRIX: Acetylcholinesterase enzyme inhibition (substrate: acetylthiocholine); format: cell-based, HEK293; conditions: hek293; Not Active = under 50% inhibition at 10 µM
Chain of Acetylcholinesterase (P22303 whole entry): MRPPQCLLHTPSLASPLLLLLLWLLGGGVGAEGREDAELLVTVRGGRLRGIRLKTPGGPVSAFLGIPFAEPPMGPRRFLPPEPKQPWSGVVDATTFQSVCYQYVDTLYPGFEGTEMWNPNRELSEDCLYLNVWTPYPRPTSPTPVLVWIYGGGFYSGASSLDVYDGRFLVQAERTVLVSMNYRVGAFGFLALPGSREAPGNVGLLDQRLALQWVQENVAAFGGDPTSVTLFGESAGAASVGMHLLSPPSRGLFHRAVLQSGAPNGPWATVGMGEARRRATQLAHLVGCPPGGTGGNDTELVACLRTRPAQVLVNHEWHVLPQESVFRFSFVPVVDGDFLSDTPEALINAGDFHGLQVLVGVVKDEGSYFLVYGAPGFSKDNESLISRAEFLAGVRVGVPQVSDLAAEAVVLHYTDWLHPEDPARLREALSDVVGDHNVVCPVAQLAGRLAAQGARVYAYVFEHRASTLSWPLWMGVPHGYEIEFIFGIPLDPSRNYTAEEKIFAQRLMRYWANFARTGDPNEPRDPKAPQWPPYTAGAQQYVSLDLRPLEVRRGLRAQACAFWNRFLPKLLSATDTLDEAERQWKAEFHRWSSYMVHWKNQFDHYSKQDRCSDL

[7] = target: T4, Androgen receptor (Rattus norvegicus, UniProt P15207); further: in other assays of this panel Not Active means under 50% inhibition at 10 µM
T4 sequence (P15207 whole entry): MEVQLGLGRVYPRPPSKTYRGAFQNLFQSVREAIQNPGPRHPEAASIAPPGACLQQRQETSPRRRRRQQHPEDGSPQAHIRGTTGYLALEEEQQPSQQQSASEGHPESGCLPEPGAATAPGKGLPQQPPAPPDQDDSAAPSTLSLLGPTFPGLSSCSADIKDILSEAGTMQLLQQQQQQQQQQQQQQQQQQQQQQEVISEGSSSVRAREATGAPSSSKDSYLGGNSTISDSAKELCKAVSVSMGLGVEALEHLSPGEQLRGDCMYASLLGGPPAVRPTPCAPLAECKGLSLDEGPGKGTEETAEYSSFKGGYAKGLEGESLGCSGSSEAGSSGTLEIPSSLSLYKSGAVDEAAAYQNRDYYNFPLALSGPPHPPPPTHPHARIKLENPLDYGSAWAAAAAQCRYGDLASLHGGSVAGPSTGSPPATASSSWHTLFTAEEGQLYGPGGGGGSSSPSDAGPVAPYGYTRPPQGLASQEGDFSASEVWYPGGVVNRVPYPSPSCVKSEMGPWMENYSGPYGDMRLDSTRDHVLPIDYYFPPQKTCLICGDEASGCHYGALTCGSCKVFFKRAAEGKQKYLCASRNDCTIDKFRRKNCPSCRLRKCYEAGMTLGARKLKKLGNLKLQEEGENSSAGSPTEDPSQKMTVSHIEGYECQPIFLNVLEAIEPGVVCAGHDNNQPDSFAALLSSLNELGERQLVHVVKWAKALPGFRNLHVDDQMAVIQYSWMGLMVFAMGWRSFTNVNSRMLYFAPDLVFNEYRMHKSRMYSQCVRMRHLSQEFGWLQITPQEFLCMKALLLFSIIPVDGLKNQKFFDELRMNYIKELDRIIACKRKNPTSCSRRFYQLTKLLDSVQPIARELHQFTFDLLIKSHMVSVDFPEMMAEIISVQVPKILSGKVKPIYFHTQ

Row | Compound | IC50 [1] | IC50 [2] | IC50 [3] | Ki [3] | IC50 ([4]; cho-k1) | IC50 [5] | IC50 [6] | IC50 [7] | IC50 ([4]; read-out: IC50) [nM] | Ki ([4]; read-out: Ki) [nM] | IC50 ([3]; read-out: IC50) [nM] | Ki ([3]; read-out: Ki) [nM] | Ki [1] | Ki [2] | Ki ([4]; cho-k1) | Ki [5] | Ki [6] | Ki [7]
1 | Cc1c(C)c2c(c(C)c1O)CCC(C)(CN1CCN(c3cc(N4CCCC4)nc(N4CCCC4)n3)CC1)O2 (centres undefined) | Not Active | Not Active | Not Active | Not Active | Not Active | Not Active | Not Active | Not Active |  |  |  |  |  |  |  |  |  | 
2 | CN(C)CCOC(c1ccccc1)c1ccccc1 [DIPHENHYDRAMINE] | Not Active | Not Active |  |  |  | Not Active | Not Active | Not Active |  |  |  |  |  |  |  |  |  | 
3 | CCN(CC)CCOc1ccc(/C(=C(/Cl)c2ccccc2)c2ccccc2)cc1 [ENCLOMIPHENE] | Not Active | Not Active |  |  |  | Not Active | Not Active | Not Active | 1770 | 1270 |  |  |  |  |  |  |  | 
4 | Cc1ccc(NC(=O)c2ccc(CN3CCN(C)CC3)cc2)cc1Nc1nccc(-c2cccnc2)n1 [IMATINIB] | Not Active | Not Active |  |  | Not Active | Not Active | Not Active | Not Active |  |  |  |  |  |  |  |  |  | 
5 | N#Cc1ccc(C(c2ccc(C#N)cc2)n2cncn2)cc1 [LETROZOLE] | Not Active | Not Active | Not Active | Not Active | Not Active | Not Active | Not Active | Not Active |  |  |  |  |  |  |  |  |  | 
6 | CCN1CCC[C@H]1CNC(=O)c1cc(S(N)(=O)=O)ccc1OC [LEVOSULPIRIDE] | Not Active | Not Active | Not Active | Not Active | Not Active | Not Active | Not Active | Not Active |  |  |  |  |  |  |  |  |  | 
7 | CCN(CC)CC(=O)Nc1c(C)cccc1C [LIDOCAINE] | Not Active | Not Active | Not Active | Not Active | Not Active | Not Active | Not Active | Not Active |  |  |  |  |  |  |  |  |  | 
8 | O=C1Nc2ccc(Cl)cc2C(c2ccccc2Cl)=NC1O (centres undefined) [LORAZEPAM] | Not Active | Not Active | Not Active | Not Active | Not Active | Not Active | Not Active | Not Active |  |  |  |  |  |  |  |  |  | 
9 | COc1c2occc2cc2ccc(=O)oc12 [METHOXSALEN] | Not Active | Not Active | Not Active | Not Active | Not Active | Not Active | Not Active | Not Active |  |  |  |  |  |  |  |  |  | 
10 | Nc1cc(N2CCCCC2)nc(N)[n+]1[O-] [MINOXIDIL] | Not Active | Not Active | Not Active | Not Active | Not Active | Not Active | Not Active | Not Active |  |  |  |  |  |  |  |  |  | 
11 | CCCCOc1cc(CC2CNC(=O)N2)ccc1OC (centres undefined) [RO-201724] | Not Active | Not Active | Not Active | Not Active | Not Active | Not Active | Not Active | Not Active |  |  |  |  |  |  |  |  |  | 
12 | NC(=O)N1C(=O)/C(=C(\O)c2cccs2)c2cc(Cl)ccc21 [TENIDAP] | Not Active | Not Active | Not Active | Not Active | Not Active | Not Active | Not Active | Not Active |  |  |  |  |  |  |  |  |  | 
13 | Clc1ccccc1CN1CCc2sccc2C1 [TICLOPIDINE] | Not Active | Not Active |  |  | Not Active | Not Active | Not Active | Not Active |  |  | 2240 | 1490 |  |  |  |  |  | 
14 | NC1CCN(c2nc3c(cc2F)c(=O)c(C(=O)O)cn3-c2ccc(F)cc2F)C1 (centres undefined) [TOSUFLOXACIN] | Not Active | Not Active | Not Active | Not Active | Not Active | Not Active | Not Active | Not Active |  |  |  |  |  |  |  |  |  | 
15 | O=C(Nc1ccc(Br)cc1)c1cc(Br)cc(Br)c1O [TRIBROMSALAN] | Not Active | Not Active | Not Active | Not Active | Not Active | Not Active | Not Active |  |  |  |  |  |  |  |  |  |  | 
16 | CC(c1cc2ccccc2s1)N(O)C(N)=O (centres undefined) [ZILEUTON] | Not Active | Not Active | Not Active | Not Active | Not Active | Not Active | Not Active | Not Active |  |  |  |  |  |  |  |  |  | 
17 | MANGANESE CHLORIDE ANHYDROUS | Not Active | Not Active | Not Active | Not Active | Not Active | Not Active | Not Active | Not Active |  |  |  |  | Not Active | Not Active | Not Active | Not Active | Not Active | Not Active
18 | SODIUM ORTHOVANAD | Not Active | Not Active | Not Active | Not Active | Not Active | Not Active | Not Active | Not Active |  |  |  |  | Not Active | Not Active | Not Active | Not Active | Not Active | Not Active
